Where a name gives a salt, the structure may show the parent alone.
System: neurons and astrocytes
Assay: LC-MS/MS identification of succinated proteins, neurons and astrocytes overall
Assay type: cell-based
Conditions: both neurons and astrocytes
Method: For the identification of succination sites, 60 μg of protein from primary neurons, 200 μg of protein from primary astrocytes or 120 μg of protein from differentiated N1E-115 neurons were resolved by SDS-PAGE, and the gels were stained with Coomassie Brilliant Blue. After de-staining, all protein bands were excised from the gels and subjected to in-gel digestion with trypsin. Briefly, proteins were reduced with 10 mM dithiothreitol and alkylated with 170 mM 4-vinylpyridine. Trypsin digestion was carried out overnight at 37° C. in the presence of 1.5 ng sequence grade modified trypsin (Promega®, Madison, WI) in 50 mM ammonium bicarbonate. After gel extraction, the peptides were re-suspended in 1% acetic acid and analyzed on a DionexTM […] system (Thermo ScientificTM, Rockford, IL) coupled to an Orbitrap Velos ProTM mass spectrometer (Thermo ScientificTM, Rockford, IL). The LC solvents were 2% acetonitrile/0.1% formic acid (Solvent A) and 80% acetonitrile/0.1% formic acid (Solvent B). […] The data-dependent acquisition (DDA) data were analyzed using Proteome DiscovererTM 1.4 software with SEQUEST search engine against the uniprot_ref_mouse database (2014-10-03 version, 52,474 proteins) or uniprot_ref_rat database (2011-5-11 version, 39765 proteins) with Xcorr>1 validation (+2) and an allowance for 2 missed cleavages. […]

COC(=O)/C=C/C(=O)OC [DMF, dimethyl fumarate]
number of distinct protein subunits directly modified by either DMF or MMF: 24
